Laboratory results as given in PubChem BioAssay (NCI).
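Five compound concentrations were applied to cells in 96-well plates for 48 hours; endpoints were derived by simple linear interpolation of the resulting dose-response curve. The concentration for 50% growth inhibition is given as GI50. At the TGI there is no net growth.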

Assays:
Test in all cases: growth of human tumour cells (NCI), 48 h
SK-MEL-5 melanoma = tested on: SK-MEL-5 melanoma
UACC-257 melanoma = tested on: UACC-257 melanoma
MOLT-4 leukemia = tested on: MOLT-4 leukemia
NCI-H226 lung = tested on: NCI-H226 lung
HOP-92 NSCLC = tested on: HOP-92 NSCLC
RPMI-8226 leukemia = tested on: RPMI-8226 leukemia
UACC-62 melanoma = tested on: UACC-62 melanoma
MALME-3M melanoma = tested on: MALME-3M melanoma
T-47D breast = tested on: T-47D breast
BT-549 breast = tested on: BT-549 breast

SMILES	TGI (SK-MEL-5 melanoma) [µM]	TGI (UACC-257 melanoma) [µM]	TGI (MOLT-4 leukemia) [µM]	TGI (NCI-H226 lung) [µM]	TGI (HOP-92 NSCLC) [µM]	TGI (RPMI-8226 leukemia) [µM]	TGI (UACC-62 melanoma) [µM]	TGI (MALME-3M melanoma) [µM]	TGI (T-47D breast) [µM]	GI50 (BT-549 breast) [µM]	TGI (BT-549 breast) [µM]	GI50 (SK-MEL-5 melanoma) [µM]	GI50 (UACC-257 melanoma) [µM]	GI50 (MALME-3M melanoma) [µM]	GI50 (MOLT-4 leukemia) [µM]	GI50 (NCI-H226 lung) [µM]	GI50 (HOP-92 NSCLC) [µM]	GI50 (RPMI-8226 leukemia) [µM]	GI50 (UACC-62 melanoma) [µM]
CN(C)CC1CCC/C1=N\O (stereo not given)	> 100	> 100	> 100	> 100	> 100	> 100	> 100												
COC(=O)c1nc(Cl)nc(Cl)c1Cl	35.1		32.9	64.4	42.9	63.6		45.9	54.2										
COC1C2C=CC(C2)[C@H]1[N+](=O)[O-] (stereo not given in full)	> 100	> 100	> 100	> 100	> 100		> 100	> 100											
C[C@]12CCCC(=O)C1(O)C[C@H](C(=O)O)CC2 (stereo not given in full)	> 100	> 100	> 100	> 100	> 100	> 100	> 100	> 100											
Cc1cc(C)c(C(=O)c2no[n+]([O-])c2C(=O)c2c(C)cc(C)c(Br)c2C)c(C)c1Br			20.2	31.6	20.3	38.9	23.7	29.9											
C=C1C(=O)O[C@H]2[C@H]1CC/C(COC(=O)c1cc3cc(Cl)ccc3[nH]1)=C\CC[C@@]1(C)O[C@@H]21	3.54	3.2	3.37	3.72	2.76	3.28	3.27	3.33		1.31	3.2	1.91	1.7	1.63	0.557	1.8	1.25	0.81	1.67
CCOP(=O)(OCC)OC(C#N)c1ccc(-c2ccccc2)cc1 (stereo not given)	31.8	36.8	29.9	> 100	52.6	45.8	29.2	41											
O=C(N/N=C(/CCN1CCCC1)CC(c1ccccc1)c1c(O)c2ccccc2oc1=O)c1ccncc1 (stereo not given)	> 100	> 100		> 100	> 100	> 100	> 100	> 100											
CC[C@]1(O)C(=O)OCc2c1cc1n(c2=O)Cc2cc3c(N)cccc3nc2-1	> 100	> 100	> 100	> 100	> 100	> 100	> 100	> 100											
COC(=O)[C@]12CCC(C)[C@H](C)[C@H]1C1=CCC3[C@@]4(C)CC[C@H](OC(C)=O)C(C)(C)C4CC[C@@]3(C)C1(C)C(O)C2 (stereo not given in full)	> 100	> 100	> 100	83.1	> 100	> 100	> 100	> 100											
CCCCN(CCCC)c1c([N+](=O)[O-])c(=O)nc2ccccn12	> 100		> 100	> 100	> 100	> 100	> 100	> 100											
CC(=O)NC(CCCCNC(=O)NCCCl)C(=O)NCc1ccccc1 (stereo not given)	> 100	> 100	> 100	> 100	> 100	> 100	> 100	> 100											
COc1ccc(/C=C\c2cc(OC)c(O[Si](C)(C)C(C)(C)C)c(OC)c2)cc1		62.4	38.8	> 100	> 100	83.3	> 100	> 100											
CC(=O)OCC(OC(C)=O)C(OC(C)=O)C(OC(C)=O)C(=O)CNn1c(-c2ccccc2Cl)nc2ccccc2c1=O (stereo not given)	> 100	> 100	> 100	> 100		> 100	> 100	> 100											
COC1OC(CO)C(O)C1N (stereo not given)	> 100	> 100	> 100	> 100	> 100		> 100	> 100											
CN(C)/N=C(/c1nc2ccc(Cl)cc2[nH]c1=O)C(O)c1ccc(C(O)/C(=N\N(C)C)c2nc3ccc(Cl)cc3[nH]c2=O)cc1 (stereo not given)	> 100	> 100	> 100		> 100	> 100	> 100	> 100											
O=C(c1ccncc1)n1nc(-c2ccccc2)c(N=Nc2ccccc2[N+](=O)[O-])c1-c1ccccc1	> 100	> 100	> 100		> 100	> 100	> 100	> 100											
Cc1ccccc1C1=C(C(=O)Nc2ccc(Cl)c(Cl)c2)NC(=S)NC1N (stereo not given)	> 100	> 100	> 100			> 100	> 100	> 100											
